Test results: ChEMBL document CHEMBL2073854, “Localization and function of the organic anion-transporting polypeptide Oatp2 in rat liver” (Gastroenterology, 1999)

Legend:
[1] = biological target: T1, Solute carrier organic anion transporter family member 1A4 (Rattus norvegicus, UniProt O35913); assay: (§1) TP_TRANSPORTER: uptake in Xenopus laevis oocytes; type: functional, cell-based; settings: oocyte
T1 sequence (O35913 whole entry): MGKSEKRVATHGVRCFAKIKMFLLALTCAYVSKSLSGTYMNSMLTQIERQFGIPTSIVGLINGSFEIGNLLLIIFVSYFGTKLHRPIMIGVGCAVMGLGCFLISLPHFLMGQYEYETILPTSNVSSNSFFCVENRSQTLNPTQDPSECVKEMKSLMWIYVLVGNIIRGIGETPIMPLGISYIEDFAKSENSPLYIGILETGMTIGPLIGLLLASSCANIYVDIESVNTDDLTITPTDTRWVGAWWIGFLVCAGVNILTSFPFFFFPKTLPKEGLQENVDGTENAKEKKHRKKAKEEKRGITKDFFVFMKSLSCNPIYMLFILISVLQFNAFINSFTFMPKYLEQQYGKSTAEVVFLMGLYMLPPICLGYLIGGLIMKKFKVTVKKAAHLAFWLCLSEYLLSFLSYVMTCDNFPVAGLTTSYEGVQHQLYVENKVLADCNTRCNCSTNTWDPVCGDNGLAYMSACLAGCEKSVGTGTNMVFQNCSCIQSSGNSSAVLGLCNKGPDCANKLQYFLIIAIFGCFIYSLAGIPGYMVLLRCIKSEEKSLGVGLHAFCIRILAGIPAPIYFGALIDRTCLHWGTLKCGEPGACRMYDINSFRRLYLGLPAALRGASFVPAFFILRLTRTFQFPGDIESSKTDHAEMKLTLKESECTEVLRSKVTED

[2] = biological target: T2, Solute carrier organic anion transporter family member 1A1 (Rattus norvegicus, UniProt P46720); assay: as §1; type: functional, cell-based; settings: oocyte
T2 sequence (P46720 whole entry): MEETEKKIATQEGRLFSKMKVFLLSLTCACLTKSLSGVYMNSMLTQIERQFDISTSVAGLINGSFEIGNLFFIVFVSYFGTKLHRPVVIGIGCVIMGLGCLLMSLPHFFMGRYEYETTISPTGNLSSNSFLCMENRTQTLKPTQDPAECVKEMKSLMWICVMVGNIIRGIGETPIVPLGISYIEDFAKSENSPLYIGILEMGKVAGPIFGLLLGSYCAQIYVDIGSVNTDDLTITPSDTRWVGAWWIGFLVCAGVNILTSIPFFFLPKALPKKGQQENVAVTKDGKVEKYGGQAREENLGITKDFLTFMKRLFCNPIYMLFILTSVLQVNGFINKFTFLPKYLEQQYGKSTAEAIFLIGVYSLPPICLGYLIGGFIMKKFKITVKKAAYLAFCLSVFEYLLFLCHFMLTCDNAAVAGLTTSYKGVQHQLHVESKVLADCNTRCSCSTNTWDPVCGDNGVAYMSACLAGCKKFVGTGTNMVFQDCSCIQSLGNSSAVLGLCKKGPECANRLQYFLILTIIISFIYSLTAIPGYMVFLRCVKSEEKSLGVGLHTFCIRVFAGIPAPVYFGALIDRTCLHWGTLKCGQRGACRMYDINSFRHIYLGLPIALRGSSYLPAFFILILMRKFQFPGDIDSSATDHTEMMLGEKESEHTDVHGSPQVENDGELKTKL

[3] = substrate: CC(C)C[C@@H]1NC(=O)[C@@H](C(C)C)NC(=O)[C@@H]2CCCN2C(=O)[C@@H](CC(=O)O)NC(=O)[C@@H](Cc2c[nH]c3ccccc23)NC1=O; assay: as §1; type: functional, cell-based, Oocyte
[4] = substrate: C[C@H](CCC(=O)NCCS(=O)(=O)O)[C@H]1CC[C@H]2[C@@H]3[C@@H](O)C[C@@H]4C[C@H](O)CC[C@]4(C)[C@H]3CC[C@]12C; assay: as §1; type: functional, cell-based, Oocyte
[5] = substrate: [H][C@@]12CC=C3C[C@@H](OS(=O)(=O)O)CC[C@]3(C)[C@@]1([H])CC[C@]1(C)C(=O)CC[C@@]21[H]; assay: as §1; type: functional, cell-based, Oocyte
[6] = substrate: C[C@H](CCC(=O)NCCS(=O)(=O)O)[C@H]1CC[C@H]2[C@@H]3[C@H](O)C[C@@H]4C[C@H](O)CC[C@]4(C)[C@H]3CC[C@]12C; assay: as §1; type: functional, cell-based, Oocyte
[7] = substrate: [H][C@]12CC[C@]3([H])[C@]([H])(CC[C@]4(C)C([C@H](C)CCC(=O)NCCS(=O)(=O)O)CC[C@@]34[H])[C@@]1(C)CC[C@@H](OS(=O)(=O)O)C2; assay: as §1; type: functional, cell-based, Oocyte

**Q.** `CCCCC/C=C\C\C=C/C=C/C=C/[C@@H](SC[C@@H](NC(=O)CC[C@H](N)C(=O)O)C(=O)NCC(=O)O)[C@@H](O)CCCC(=O)O` [LEUKOTRIEN C4] was tested. Which Activity [1] did it give?
**A.** is not a substrate [-]

**Q.** `C[C@H](CCC(=O)NCCS(=O)(=O)O)C1CC[C@H]2[C@@H]3CC[C@@H]4C[C@H](OS(=O)(=O)O)CC[C@]4(C)[C@H]3CC[C@]12C` (some centres not stated) was tested. Which Activity [1] did it give?
**A.** is not a substrate [-]

**Q.** How did the Activity [1] turn out when `O=C1OC(c2ccc(O)c(S(=O)(=O)[O-])c2)(c2ccc(O)c(S(=O)(=O)[O-])c2)c2c(Br)c(Br)c(Br)c(Br)c21.[Na+].[Na+]` [SULFOBROMOPHTHALEIN SODIUM] was run?
**A.** is not a substrate [-]

**Q.** `C=CC1=C(C)/C(=C/c2[nH]c(Cc3[nH]c(/C=C4\NC(=O)C(C)=C4C=C)c(C)c3CCC(=O)O[C@@H]3OC(C(=O)O)[C@@H](O)C(O)C3O)c(CCC(=O)O)c2C)NC1=O` (some centres not stated) [BILIRUBIN MONOGLUCURONIDE] was tested. Which Activity [1] did it give?
**A.** is not a substrate [-]

**Q.** And the Activity [2]?
**A.** substrate [+]

**Q.** For GADOXETATE, which Activity [1] is on record?
**A.** is not a substrate [-]

B1: Solute carrier organic anion transporter family member 1A4 (Rattus norvegicus) (protein)
chain: MGKSEKRVATHGVRCFAKIKMFLLALTCAYVSKSLSGTYMNSMLTQIERQFGIPTSIVGLINGSFEIGNLLLIIFVSYFGTKLHRPIMIGVGCAVMGLGCFLISLPHFLMGQYEYETILPTSNVSSNSFFCVENRSQTLNPTQDPSECVKEMKSLMWIYVLVGNIIRGIGETPIMPLGISYIEDFAKSENSPLYIGILETGMTIGPLIGLLLASSCANIYVDIESVNTDDLTITPTDTRWVGAWWIGFLVCAGVNILTSFPFFFFPKTLPKEGLQENVDGTENAKEKKHRKKAKEEKRGITKDFFVFMKSLSCNPIYMLFILISVLQFNAFINSFTFMPKYLEQQYGKSTAEVVFLMGLYMLPPICLGYLIGGLIMKKFKVTVKKAAHLAFWLCLSEYLLSFLSYVMTCDNFPVAGLTTSYEGVQHQLYVENKVLADCNTRCNCSTNTWDPVCGDNGLAYMSACLAGCEKSVGTGTNMVFQNCSCIQSSGNSSAVLGLCNKGPDCANKLQYFLIIAIFGCFIYSLAGIPGYMVLLRCIKSEEKSLGVGLHAFCIRILAGIPAPIYFGALIDRTCLHWGTLKCGEPGACRMYDINSFRRLYLGLPAALRGASFVPAFFILRLTRTFQFPGDIESSKTDHAEMKLTLKESECTEVLRSKVTED
**Q.** B1 was tested. Which Km [3] did it give?
**A.** 30 µM

**Q.** And the Km [4]?
**A.** 17 µM

**Q.** What about the Km [5] of the same molecule?
**A.** 17 µM

**Q.** What about the Km [6] of the same molecule?
**A.** 12 µM

B2: Solute carrier organic anion transporter family member 1A1 (Rattus norvegicus) (protein)
chain: MEETEKKIATQEGRLFSKMKVFLLSLTCACLTKSLSGVYMNSMLTQIERQFDISTSVAGLINGSFEIGNLFFIVFVSYFGTKLHRPVVIGIGCVIMGLGCLLMSLPHFFMGRYEYETTISPTGNLSSNSFLCMENRTQTLKPTQDPAECVKEMKSLMWICVMVGNIIRGIGETPIVPLGISYIEDFAKSENSPLYIGILEMGKVAGPIFGLLLGSYCAQIYVDIGSVNTDDLTITPSDTRWVGAWWIGFLVCAGVNILTSIPFFFLPKALPKKGQQENVAVTKDGKVEKYGGQAREENLGITKDFLTFMKRLFCNPIYMLFILTSVLQVNGFINKFTFLPKYLEQQYGKSTAEAIFLIGVYSLPPICLGYLIGGFIMKKFKITVKKAAYLAFCLSVFEYLLFLCHFMLTCDNAAVAGLTTSYKGVQHQLHVESKVLADCNTRCSCSTNTWDPVCGDNGVAYMSACLAGCKKFVGTGTNMVFQDCSCIQSLGNSSAVLGLCKKGPECANRLQYFLILTIIISFIYSLTAIPGYMVFLRCVKSEEKSLGVGLHTFCIRVFAGIPAPVYFGALIDRTCLHWGTLKCGQRGACRMYDINSFRHIYLGLPIALRGSSYLPAFFILILMRKFQFPGDIDSSATDHTEMMLGEKESEHTDVHGSPQVENDGELKTKL
**Q.** What does the source list for B2?
**A.** Km [7]: 6 µM; Km [3]: 600 µM
